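Five concentrations, 48 hours, 96-well plates. GI50 is the concentration that inhibits growth by half.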 Activity calls are given as the source filed them. No stated cut-off is given here; in the data, active = GI50 up to about 1.1 µM and inactive = higher.

Consider nine compounds from ChEMBL document CHEMBL1201862, “PubChem BioAssay data set” (2004).

Some test systems named below: UACC-62; MDA-N; NCI-H226; K562; ACHN; UACC-257; Malme-3M; CAKI-1; SF-295; NCI-H522; U-251; PC-3; UO-31; CCRF-CEM; SF-539; DU-145; OVCAR-8; Hs-578T; SR.
Common to all, as to assay: inhibition of tumour cell growth, NCI panel, 48 h

On to `O=C1/C(=C2/CCCN2)C(c2ccc[nH]2)=NN1c1ccccc1`, for which the GI50 in the experiment on UACC-62, with MDA-N, in the experiment with NCI-H226, in the experiment with K562, with ACHN and in the experiment on UACC-257 was > 100 µM (inactive) in each case. For the same compound, the GI50 in the experiment on Malme-3M, in the experiment with CAKI-1, in the experiment on SF-295, in the experiment on NCI-H522, in the experiment on U-251 and with PC-3 was > 100 µM (inactive) throughout. In addition, the GI50 was > 100 µM (inactive) in the experiment on UO-31; 1.75 µM (inactive) in the experiment with CCRF-CEM; > 100 µM (inactive) in the experiment on SF-539; > 100 µM (inactive) in the experiment on DU-145; > 100 µM (inactive) in the experiment on OVCAR-8.
`COc1ccc2c(c1)CC[C@@H]1[C@@H]2CC[C@]2(C)[C@@H](O)/C(=C/c3ccncc3)C[C@@H]12`: the GI50 is 13.8 µM (inactive) in the experiment with UACC-62; 12.4 µM (inactive) with MDA-N; 12.8 µM (inactive) in the experiment on Hs-578T; 20.1 µM (inactive) in the experiment with NCI-H226; 26.5 µM (inactive) in the experiment on ACHN; 16.6 µM (inactive) in the experiment on UACC-257. For the same compound, the GI50 is 12.3 µM (inactive) with Malme-3M; 14.8 µM (inactive) in the experiment on CAKI-1; 10.5 µM (inactive) in the experiment with SF-295; 14 µM (inactive) in the experiment with NCI-H522; 12.4 µM (inactive) in the experiment with U-251; 10.1 µM (inactive) in the experiment on PC-3. In addition, the GI50 is 14 µM (inactive) with UO-31, 11.1 µM (inactive) in the experiment with CCRF-CEM, 18 µM (inactive) in the experiment on DU-145 and 14.4 µM (inactive) with OVCAR-8.
Regarding `C=C1CC[C@H]2C(=O)OC(c3ccoc3)C[C@]2(C)C/C=C\C=C/1C(=O)OC` (some centres not stated), the GI50 with UACC-62, in the experiment with MDA-N, in the experiment on Hs-578T, with NCI-H226, in the experiment with K562 and in the experiment with ACHN was > 25 µM (inactive) each time. Besides, the GI50 with UACC-257, in the experiment with Malme-3M, in the experiment with CAKI-1, in the experiment with SF-295, in the experiment with U-251 and in the experiment with PC-3 was > 25 µM (inactive) each time. The GI50 was 13.6 µM (inactive) with UO-31, > 25 µM (inactive) in the experiment on SF-539 and > 25 µM (inactive) in the experiment with OVCAR-8.
With `C[C@H]1C[C@H](C)c2ccccc2N(C)/C1=N\c1ccccc1`, the GI50 was 23.5 µM (inactive) with UACC-62; 24.4 µM (inactive) with SR; 23.4 µM (inactive) in the experiment on MDA-N; 24.7 µM (inactive) in the experiment on Hs-578T; 24.5 µM (inactive) in the experiment on NCI-H226; 66.7 µM (inactive) in the experiment with K562. The GI50 was 34.4 µM (inactive) in the experiment on ACHN; 20.3 µM (inactive) in the experiment with UACC-257; 22.6 µM (inactive) with Malme-3M; 63.1 µM (inactive) in the experiment with CAKI-1; 26.4 µM (inactive) in the experiment with SF-295; 29.9 µM (inactive) with PC-3. Moreover, the GI50 in the experiment with UO-31 was 39 µM (inactive); in the experiment on SF-539, 30.2 µM (inactive); in the experiment on DU-145, 92 µM (inactive); with OVCAR-8, 43.2 µM (inactive).
With `c1cc(CSP234N5CCN2CCN3CCN4CC5)ccc1CSP123N4CCN1CCN2CCN3CC4`, the GI50 is > 100 µM (inactive) in the experiment on UACC-62; > 100 µM (inactive) in the experiment with MDA-N; > 100 µM (inactive) in the experiment on Hs-578T; < 0.01 µM (active) with K562; > 100 µM (inactive) in the experiment on ACHN; > 100 µM (inactive) in the experiment on UACC-257. The GI50 was > 100 µM (inactive) in the experiment with CAKI-1; > 100 µM (inactive) in the experiment on SF-295; 52 µM (inactive) with NCI-H522; 68.5 µM (inactive) with U-251; > 100 µM (inactive) in the experiment with PC-3; 99.8 µM (inactive) in the experiment with UO-31. Besides, the GI50 with CCRF-CEM was 27.4 µM (inactive); in the experiment on SF-539, 64.6 µM (inactive); in the experiment on DU-145, > 100 µM (inactive); in the experiment on OVCAR-8, > 100 µM (inactive).
Regarding `N#Cc1c2ccc([N+](=O)[O-])cc2c(=O)n2c1sc1ccccc12`, the GI50 was 28 µM (inactive) in the experiment on UACC-62; 3.94 µM (inactive) in the experiment on SR; 80.2 µM (inactive) in the experiment with MDA-N; 48 µM (inactive) in the experiment on Hs-578T; 17 µM (inactive) in the experiment on NCI-H226; 11.1 µM (inactive) in the experiment with K562. For the same compound, the GI50 with ACHN is 32.4 µM (inactive); in the experiment with UACC-257 it was 78.5 µM (inactive); in the experiment on CAKI-1, 24.4 µM (inactive); with U-251, 14.6 µM (inactive); with PC-3, 14.8 µM (inactive); in the experiment on UO-31, 22.6 µM (inactive). Further, the values for the GI50 in the experiment with CCRF-CEM, with DU-145 and with OVCAR-8 were 7.29 µM (inactive), 35.5 µM (inactive) and 35.2 µM (inactive), respectively.
For the compound `CCOC(=O)C1(C/C=C\CBr)CCCCCCC1=O` (configuration not stated), the GI50 in the experiment on UACC-62, in the experiment with MDA-N, in the experiment with Hs-578T, with NCI-H226, with ACHN and in the experiment with UACC-257 was > 100 µM (inactive) in each case. Further, the GI50 in the experiment with Malme-3M, in the experiment on CAKI-1, in the experiment with SF-295, with NCI-H522, in the experiment on U-251 and with PC-3 was > 100 µM (inactive) each time. The GI50 in the experiment on UO-31, with CCRF-CEM, with SF-539, with DU-145 and in the experiment on OVCAR-8 was > 100 µM (inactive) each time.
`CCC(c1c[nH]c2ccc(Br)cc12)c1c[nH]c2ccc(Br)cc12`: the GI50 with UACC-62 is 10.2 µM (inactive); in the experiment on MDA-N, 4.33 µM (inactive); in the experiment on Hs-578T, 5.82 µM (inactive); with NCI-H226, 11.8 µM (inactive); in the experiment with K562 it was 2.54 µM (inactive); in the experiment with ACHN, 3.65 µM (inactive). In addition, the GI50 was 11.6 µM (inactive) in the experiment on UACC-257; 10.6 µM (inactive) with Malme-3M; 2.45 µM (inactive) in the experiment on CAKI-1; 5.92 µM (inactive) with SF-295; 4.44 µM (inactive) with NCI-H522; 3.72 µM (inactive) in the experiment with U-251. In addition, the GI50 was 4.81 µM (inactive) in the experiment on PC-3; 6.97 µM (inactive) with UO-31; 2.95 µM (inactive) in the experiment on CCRF-CEM; 12.5 µM (inactive) with SF-539; 2.88 µM (inactive) with DU-145; 4.53 µM (inactive) in the experiment on OVCAR-8.
Take `CCOC(=O)/C(C(=O)NC(C)C)=C(/N)N1CCOCC1`: the GI50 in the experiment on UACC-62, with MDA-N, in the experiment on Hs-578T, with NCI-H226, in the experiment with K562 and in the experiment on ACHN was > 100 µM (inactive) in each case. Besides, the GI50 in the experiment with UACC-257, in the experiment with Malme-3M, in the experiment on CAKI-1, with SF-295, with NCI-H522 and with U-251 was > 100 µM (inactive) each time. Also, the GI50 with PC-3, in the experiment on CCRF-CEM, in the experiment with SF-539, in the experiment with DU-145 and in the experiment on OVCAR-8 was > 100 µM (inactive) each time.
